Here are results for one compound from PMC11455950, “Effects of SZV-2649, a new multiple ion channel inhibitor mexiletine analogue” (Scientific Reports, 2024).

In the data set the target is T1, hERG (Kv11.1) potassium channel (Homo sapiens, UniProt Q12809).
T1 construct: host or cells: HEK293
Description: Automated planar patch-clamp, hERG current in HEK cells. The class given is cell-based. An excerpt:
Inhibition of the hERG channel, the pore forming α-subunit of the native IKr cardiac potassium channel, is expected to prolong repolarization both in the atria and in the ventricles. The GIRK channel is the pore forming α-subunit of the acetylcholine-activated potassium channel and plays an important role in atrial electrophysiology. Its inhibition can be expected to decrease the acetylcholine-activated potassium current (IKACh), a current that plays an important role in the pathogenesis of AF. Therefore, the effects of SZV-2649 on the hERG and GIRK ion channels were studied by the planar patch-clamp technique in mammalian HEK cell lines stably expressing these channels.
The currents conducted by the hERG and GIRK channels were measured by using planar patch-clamp technology[,[47],[68] in the whole-cell configuration with a four-channel medium-throughput fully automated patch-clamp platform (Patchliner Quattro, Nanion Technologies GmbH, Munich, Germany) with integrated temperature control. Data acquisition and online analysis were performed with an EPC-10 Quadro patch-clamp amplifier (HEKA Elektronik Dr Schulze GmbH, Lambrecht/Pfalz, Germany), using PatchMaster 2.65 software (HEKA Elektronik Dr. Schulze GmbH). The pipetting protocols were controlled by PatchControlHT 1.09.30 software (Nanion Technologies GmbH). […]

Structures are written as SMILES.

T1 sequence (Q12809 whole entry): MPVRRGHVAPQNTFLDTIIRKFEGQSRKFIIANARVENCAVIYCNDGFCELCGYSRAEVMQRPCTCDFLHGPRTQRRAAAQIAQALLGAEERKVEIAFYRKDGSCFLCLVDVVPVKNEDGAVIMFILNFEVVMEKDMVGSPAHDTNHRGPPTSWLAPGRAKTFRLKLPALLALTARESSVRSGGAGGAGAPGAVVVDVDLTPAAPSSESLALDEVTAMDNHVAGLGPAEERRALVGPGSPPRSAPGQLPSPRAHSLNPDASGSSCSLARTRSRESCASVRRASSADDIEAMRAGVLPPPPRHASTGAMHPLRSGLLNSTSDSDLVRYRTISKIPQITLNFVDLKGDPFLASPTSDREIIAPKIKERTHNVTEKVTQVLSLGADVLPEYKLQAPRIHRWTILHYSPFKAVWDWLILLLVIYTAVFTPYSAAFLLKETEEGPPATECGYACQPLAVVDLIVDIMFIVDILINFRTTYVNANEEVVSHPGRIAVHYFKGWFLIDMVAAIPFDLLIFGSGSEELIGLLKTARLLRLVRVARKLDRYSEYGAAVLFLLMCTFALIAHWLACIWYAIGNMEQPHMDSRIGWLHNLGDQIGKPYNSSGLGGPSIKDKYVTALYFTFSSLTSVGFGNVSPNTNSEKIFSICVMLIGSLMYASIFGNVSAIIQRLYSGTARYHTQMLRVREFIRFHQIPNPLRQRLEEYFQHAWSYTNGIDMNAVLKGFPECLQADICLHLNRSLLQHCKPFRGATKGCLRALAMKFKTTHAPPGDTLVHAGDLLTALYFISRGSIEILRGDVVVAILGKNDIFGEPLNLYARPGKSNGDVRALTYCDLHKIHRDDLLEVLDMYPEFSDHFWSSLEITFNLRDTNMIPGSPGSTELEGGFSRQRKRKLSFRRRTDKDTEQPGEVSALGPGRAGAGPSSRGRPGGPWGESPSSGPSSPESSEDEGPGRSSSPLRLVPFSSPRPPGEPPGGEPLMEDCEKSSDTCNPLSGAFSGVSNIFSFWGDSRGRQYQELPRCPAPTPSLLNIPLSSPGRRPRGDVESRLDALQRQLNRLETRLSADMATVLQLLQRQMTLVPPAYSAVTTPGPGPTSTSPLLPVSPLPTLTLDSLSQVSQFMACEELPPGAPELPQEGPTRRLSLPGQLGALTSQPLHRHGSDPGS

Turning to `CC(N)COc1c(I)cc(C#N)cc1I.Cl` (centres unmarked) [SZV-2649, 4-(2-aminopropoxy)-3,5-diiodobenzonitrile hydrochloride], the IC50 (HEK cells (abstract)) amounted to 342 nM. For the setting “human, HEK293 cells stably expressing hERG (Kv11.1), pH 7.4, printed in picture of Fig. 2b, read-out: Effect on hERG: EC50”, the IC50 at 3 min was 342 nM.
